The nature of data set [1]: Acute toxicity. The conditions noted are these: mouse, in vivo; ICR mice (male, 27-30 g), intravenous, up and down method. It counts as in vivo. The procedure: (§1) A test compound was administered to ICR mice (male, 27-30 g) intravenously,and the LD50 value was calculated by the up and down method.
The test system of data set [2] is gastric acid secretion. Put plainly: Inhibitory activity on gastric acid secretion (pylorus ligation method). It counts as in vivo, Wistar rats (male). To be noted: intraduodenal, histamine 25 mg/kg s.c., 3 hours. Here is the method: [I] Inhibitory activity on gastric acid secretion (pylorus ligation method)
This activity was measured in accordance with the method by H. Shay et al. described in Gastroenterology, 5, 43 (1945). Groups of six or seven Wistar rats (male, 190-230 g) were fasted for 24 hours, following which the pylorus of each rat was ligated under ether anesthesia. The test compounds were administered intraduodenally after ligation. Thereafter, the rats were subjected to celiorrhaphy and immediately 25 mg/kg of histamine was administered to them subcutaneously at the dorsal. After 3 hours, the cardia of stomach was ligated, and then the stomach was removed. The gastric juice was collected by centrifugation and the total amount was quantitated. 1 ml of the gastric juice was taken and titrated with a 0.1 N aqueous sodium hydroxide solution to an end point of pH 7.0. In administering the test compound, the compound was dissolved in dimethyl sulfoxide (DMSO) and then diluted with distilled water to obtain a 0.25% aqueous DMSO solution containing the test compound. A 0.25% aqueous DMSO solution containing no test compound was administered to control group.
The inhibition rate of gastric acid secretion was calculated from the following equation: [formula]

Data set [3] deals with ICR mice. Put plainly: Acute toxicity. The data set is classed as in vivo. The conditions noted are these: ICR mice (male, 27-30 g), intravenous, up and down method. Here is the method: as §1

The compound `CN(C)Cc1ccc(CSCCNC(=NS(C)(=O)=O)NCC(O)c2ccc(O)cc2)o1` (stereo not shown) [Test compound 5, reference compound] came in with a median lethal dose (LD50) in data set [1] of 90.7 mg/kg. Regarding `CNCc1ccc(CSCCNC(=NS(C)(=O)=O)NCC(O)c2ccc(O)cc2)o1` (stereo not shown) [compound 1], in data set [2] (Rattus norvegicus, dose 0.625 mg/kg, **p < 0.01, read-out: Inhibition rate), the inhibition at 0.625 mg/kg amounted to 67.6%. For the same compound, the inhibition at 1.25 mg/kg in data set [2] (Rattus norvegicus, dose 1.25 mg/kg, **p < 0.01, *p < 0.05, read-out: Inhibition rate) turned out to be 82.2%. The same compound registered an LD50 in data set [1] of 100 mg/kg. “N-[2-(4-carbamoylphenyl)-2-hydroxyethyl]-N'-methanesulfonyl-N"-[2-[[5-(methylamino)methyl-2furyl]-methylthio]ethyl]guanidine [Test compound 2]” returned a 50% lethal dose (LD50) in data set [3] of 129.8 mg/kg. Regarding “N-[2-hydroxy-2-(4-hydroxyphenyl)ethyl]-N'-methanesulfonyl-N"-[2-[[5-(methylamino)methyl-2-furyl]methylthio]ethyl]guanidine [Example 1 (1)]”, the Inhibition rate in data set [2] (dose 1.25 mg/kg, **p < 0.01, *p < 0.05, listed as 2) is on record as 51.3%; in data set [2] (dose 1.25 mg/kg, **p < 0.01, *p < 0.05, listed as 3) it was 54.2%; in data set [2] (dose 1.25 mg/kg, **p < 0.01, *p < 0.05, listed as 4), 30.6%. “N-[2-hydroxy-2-[3-(methanesulfonylamino)phenyl]ethyl]-N'-methanesulfonyl-N"-[2-[[5-(methylamino)-methyl-2-furyl]methylthio]ethyl]guanidine [Test compound 3]”: in data set [3], the 50% lethal dose (LD50) is given as 151.0 mg/kg.

“S(-)-N-[2-hydroxy-2-(4-hydroxyphenyl)ethyl]-N'-methanesulfonyl-N"-[2-[[5-(methylamino)methyl-2-furyl]methylthio]ethyl]guanidine [Example 5]”: in data set [2] (dose 5.0 mg/kg), the Inhibition rate was 32.7%.

What is called LD50 is the dose expected to kill half of the subjects tested. Usually inhibition stands for the relative decrease from the control value, in per cent.

The values are drawn from patent US4871765A, “Amine derivative and its salt and anti-ulcer agent containing the same” (Toyama Chemical Co., Ltd., priority 1987, dated 1989).
